Laboratory results taken from patent US10174078B2, “Keratan sulfate specific transporter molecules” (PHI PHARMA SA, priority 2014, dated 2019).
Square brackets hold non-standard residues; d marks the D form. Ends that are not written are not given here. Peptide text beside a SMILES is read from it. 3'AdT = not defined here

Experiments:
keratan-sulfate (KS) = test: modified ELISA: binding of peptides to plate-coated keratan-sulfate; conditions: plates coated with 1 mg/ml KS, 1 mg/ml peptide, 1 hour at room temperature
Procedure: The binding of the seven-mer peptides of the invention to KS as predicted by the models, in particular, as compared to the binding to other proteoglycans was tested using a modified ELISA protocol. ELISA plates were coated overnight with 1 mg/ml of heparin sulfate (HS), chondroitin-4-sulfate (C4S), chondroitin-6-sulfate (C6S) or keratan-sulfate (KS) in PBS. The wells were then washed with PBS and incubated for 1 hour at room temperature with 1 mg/ml of an exemplary peptide of the invention having the sequence RYKvRIK (“RYK-KS”; SEQ ID NO:7) or a standard TAT peptide. The plates were then thoroughly washed with PBS and subsequently photographed with a LUMASCOPE™ luminescent microscope. Images were then quantified using the ImageJ software (FIG. 4).
The same modified ELISA protocol was used to examine the impact of modifying the freely-selectable positions 2, 4 and 6 on the specific binding to KS.
The impact of sequence variation on specific binding was also investigated with select peptides using the above described modified ELISA.

[1] = estimation of in vivo stability: incubation of peptides with fetal calf serum; type: in vitro ADME; conditions: 37° C.; for degradation in fetal calf serum: 6 hr; for remaining at 6 h: fetal calf serum, read-out: stable at 6 hours
Procedure: In vivo stability was estimated by mixing peptides with fetal calf serum and incubating at 37° C. for 6 hr. Samples were tested at both 0 and 6 hours.

MDCK cells = test: viability of MDCK cultures by trypan blue exclusion after 96 hour incubation with BAM-conjugate; type: cell-based; conditions: 0.5 μM to 10 μM tested
Procedure: The activity of peptides of the invention as targeting moieties was tested in vitro in preliminary studies using cells lines expressing KS. The nucleoside analog 3′ amino deoxythymidine (3′AdT) was conjugated to the amino-terminus of the peptide “RYRI” (RYKvRlK (SEQ ID NO:7)) using a single D-Glu residue (3′AdT-e-RYRI).
Confluent cultures of MDCK were passaged at 1/20 dilution and exponentionally growing cells were incubated for 96 hours with concentrations of the nucleoside analog conjugates ranging from 0.5 μM to 10 μM. Viability was subsequently assessed using trypan blue exclusion.

Row | Molecule | binding to KS (keratan-sulfate (KS)) | degradation in fetal calf serum [1] | also measured
1 | RKKRRQRR (Artificial TAT control peptide) [standard TAT peptide] | increases in binding that were likely non-selective | – | –
2 | CC[C@H](C)[C@H](N)C(=O)N[C@@H](CCCNC(=N)N)C(=O)N[C@H](C(=O)N[C@H](CCCCN)C(=O)N[C@H](C(=O)N[C@H](CCCNC(=N)N)C(=O)N[C@H](C(=O)N[C@@H](CCCCN)C(=O)O)[C@@H](C)CC)[C@@H](C)CC)[C@@H](C)CC [IRIkIrIK] (HELM PEPTIDE1{I.R.I.[dK].I.[dR].I.K}$$$$V2.0; N-terminus and C-terminus assumed) | – | no degradation | remaining at 6 h [1]: 100%
3 | RYKvRPKYF (RYK[dV]RPKYF) [control peptide with proline at position 6] | eliminated binding activity | – | –
4 | D-linked conjugate: 3′AdT conjugated to the amino-terminus of the peptide RYRI (RYKvRIK) by a single D-Glu residue ({3'AdT}-[dE]RYK[dV]RIK; reading uncertain; also: printed as RYKvRIK) | – | – | concentrations with substantial effects on viability (MDCK cells): ≥ 0.5 µM
5 | CC[C@H](C)[C@H](NC(=O)[C@H](CCCNC(=N)N)NC(=O)[C@H](NC(=O)[C@H](CCCCN)NC(=O)[C@H](Cc1ccc(O)cc1)NC(=O)[C@@H](N)CCCNC(=N)N)C(C)C)C(=O)N[C@@H](CCCCN)C(=O)O [RYK-KS, RYKvRIK] (HELM PEPTIDE1{R.Y.K.[dV].R.I.K}$$$$V2.0; N-terminus and C-terminus assumed) | – | no degradation | remaining at 6 h [1]: 100%
6 | RRRRRRRRR [pure arginine 9-mer] | increases in binding that were likely non-selective | – | –
7 | RYKvFIKPRh (RYK[dV]FIKPR[dH]) | eliminated binding activity | – | –
8 | RPKHRPK [RPKHRPK] | – | completely degraded | –
